Results taken from publication PMC9161444, “In-Membrane Nanostructuring of Cationic Amphiphiles Affects Their Antimicrobial Efficacy and Cytotoxicity: A Comparison Study between a De Novo Antimicrobial Lipopeptide and Traditional Biocides” (Langmuir, 2022).

Tests used:
[1] = tested on: C. albicans SC5314 (ATCC MYA-2876); type: cell-based, Candida albicans; conditions: for MIC/CAC, converted data, C. albicans: MIC divided by the amphiphile's CAC; for MIC, C. albicans: microdilution in RPMI 1640, 30 °C, 48 h, 10^5 CFU/mL, by eye and OD600, ± SD, at least three replicates
Protocol: E. coli (ATCC 25922), S. aureus (ATCC 6538), and C. albicans SC5314 (ATCC MYA-2876) were purchased from the American Type Culture Collection (ATCC). The two bacterial strains, E. coli and S. aureus, were cultured in Mueller Hinton broth at 37 °C; while the yeast strain, C. albicans, was grown in RPMI 1640 medium at 30 °C. The microdilution method was employed to determine MICs of the amphiphiles against the microorganism strains listed above.[21] Solutions of lipopeptides and biocides were half-diluted serially in 96-well plates using PBS buffer containing 137 mM NaCl, 2.7 mM KCl, 8.1 mM Na2HPO4, and 1.9 mM KH2PO4 for E. coli and S. aureus and using RPMI 1640 for C. albicans. Overnight incubations of the strains, in each respective growth medium, were then inoculated into each well, giving final concentrations of 10^6 CFU/mL for E. coli and S. aureus and 10^5 CFU/mL for C. albicans. Culture media without microorganisms and amphiphiles were employed as positive controls, while fresh microorganism cultures without amphiphiles were used as negative controls. Each plate has both positive controls and negative controls. The plates were then incubated at an appropriate temperature (stated above) for 24 h for the bacterial strains and 48 h for the yeast strain. MICs of each sample were first determined by eye. A more quantitative analysis was carried out by measuring optical densities at 600 nm (OD600) of each well using a Sunrise absorbance microplate reader (Tecan Group Ltd.). Inhibitory ratios (IRs) of each sample at a given concentration against a specific strain, denoted as IRi, were calculated by IRi = (OD600,negative control – OD600,i)/(OD600,negative control – OD600,positive control) × 100%. All experiments were repeated at least three times with each group containing three replicates. To better analyze concentration–IR relationships, sigmoidal function fittings were employed to generate the best fitted dose response curve for each situation.

[2] = tested on: NIH 3T3 fibroblasts cells (3T3 cells, ATCC-1658); type: cell-based; conditions: MTT assay, 24 h exposure, 37 °C, absorbance 570 nm, sigmoidal fit; ± SD, at least three replicates; read-out: EC50, NIH/3T3
Protocol: Human dermal fibroblasts cells (adult, HDFa cells) and NIH 3T3 fibroblasts cells (3T3 cells, ATCC-1658) were cultured at 37 °C in Dulbecco’s modified Eagle medium (ATCC30-2002, added with 10% heat-inactivated fetal bovine serum) with a continuous supply of CO2 at a 5% level. MTT assays were carried out to examine in vitro cytotoxicity of the amphiphiles.[22] Cells were first inoculated in flat-bottom 96-well plates, rendering 8 × 10^3 cells in 100 μL of medium for each well, and were incubated for 24 h. The cells were mixed with 100 μL of a solution of an amphiphile with 2 times the selected concentrations. Cells were then exposed to the solutions of each amphiphile for 24 h, after which 10 μL of 5 mg/mL MTT solution was added into each well, and the reaction was allowed for 2 h. 200 μL of dimethyl sulfoxide was then added to each well to dissolve the transformed MTT formazan. Light absorbance of the samples was measured using a Thermo Scientific Varioskan LUX at 570 nm. Cell samples 100% viable and 100% dead were employed as the positive control and negative control, respectively. Dose response curves were obtained by applying sigmoidal function fittings to obtain 50% effective concentrations (EC50).

[3] = Neutron reflectivity of amphiphile binding to lipid monolayer; conditions: C14KKGGII 5 μM, C14TAB 2.5 μM, C12TAB 75 μM; for Γamphiphile, amount bound to DPPC monolayer / Γamphiphile, amount bound to DPPG monolayer: monolayer at 28 mN/m; for DPPG lipid removed from monolayer: NR
Protocol: Single-component lipid monolayer models in a Langmuir trough (12.5 cm × 15 cm, Nima Technology Ltd., UK) were employed to investigate interactions between amphiphiles and lipids. The trough was filled with 70 mL of PBS at room temperature to provide a physiological environment.[23]−[25] Saturated head-charged lipid DPPG and saturated zwitterionic DPPC monolayers, mimicking negatively charged microbial membranes and mammalian cell membranes, respectively, were formed, and their interactions with amphiphiles were controlled by injecting each amphiphile carefully from outside the trough barrier. The lipids were dissolved in a chloroform/methanol mixture (v/v 9:1) to form the spreading solution. The lipid monolayer was spread by dripping the lipid solution onto the surface of the PBS solution. Following stabilization of the surface pressure, three cycles of isothermal compression and expansion were carried out to make the monolayer homogeneous. The surface was controlled at an initial pressure of 28 mN/m to mimic the static pressure within cell membranes. The final concentration of the amphiphile after injection was 1/40 of its CAC value for C14TAB, while the final concentration was 3/40 CAC for C12TAB because of its relatively higher MICs. Surface pressure changes with time following the injection process were recorded and analyzed.
Monolayer models described above were characterized using neutron reflectivity (NR) to measure the component distribution normal to the air/liquid interface. Measurements were performed on the SURF reflectometer at the ISIS Neutron and Muon Source (STFC Rutherford Appleton Laboratory, Didcot, UK).[23]−[25] The instrument provided a momentum transfer (Q) range from 0.01 to 0.5 Å^–1 [Q = […], where λ is the wavelength of the incoming neutron beam and θ is the incident angle]. At the start of the NR measurements, the reflectivity of the air/D2O interface was used for instrument calibration. Monolayers were prepared on the beamline. For each interaction, different isotopic contrasts were examined by applying chain-deuterated or fully hydrogenated versions of lipids (d62-DPPG, DPPG, d62-DPPC, and DPPC, denoted as dDPPG, hDPPG, dDPPC, and hDPPC, respectively) on the surface of PBS in D2O or null reflecting water (NRW, H2O/D2O = 91.9%/8.1%, v/v) and injecting deuterated or protonated versions of amphiphiles (C14KKGGII, dC14KKGGII, C12TAB, dC12dTAB, and C14TAB, denoted as hC14KKGGII, dC14KKGGII, hC12TAB, dC12TAB, and hC14TAB, respectively) from underneath the lipid monolayer outside the trough barrier bar. Reflectivity profiles from lipid monolayers were scanned before amphiphile injection to ensure good monolayer reproducibility. Raw data were reduced using Mantid software, and the resultant NR profiles were fitted via the least squares method using a Motofit package on Igor 6, where a multilayer model was employed in the analysis. The thickness and scattering length density (SLD, Nb) of each layer, that is, lipid tail region, lipid head region, and lipopeptide region, were fitted to the data. The SLD of each layer is related to the volume fractions of its components and could be calculated using Nb = ∑iφiNbi, where i denotes each component, for example, the solvent, lipid tails, lipid heads, lipopeptides’ acyl chains, and lipopeptides’ amino acids, and φi represents the volume fraction of component i and is constrained by ∑iφi = 1 in each layer. More details about the division of the molecular head/tail groups and relevant fitting parameters can be found in Figure S3 and Tables S3 and S4.

SMILES | MIC/CAC, converted data, C. albicans [1] | MIC, C. albicans [1] | EC50 [2] | Γlipid, DPPC remaining on the surface after amphiphile binding ([3]; NR best fit, DPPC monolayer at 28 mN/m, 3.08 ± 0.08 before) | Γlipid, DPPG remaining on the surface after amphiphile binding ([3]; NR best fit, DPPG monolayer at 28 mN/m, 3.35 ± 0.01 before) | Γamphiphile, amount bound to DPPC monolayer ([3]; NR best fit) | Γamphiphile, amount bound to DPPG monolayer ([3]; NR best fit) | DPPG lipid removed from monolayer [3]
CCCCCCCCCCCC[N+](C)(C)C.[Br-] [C12TAB, dodecyltrimethylammonium bromide] | 0.10 ± 0.03 | 100 ± 30 µM | 12 ± 4 µM | 2.55 ± 0.01 μmol/m^2 | 2.70 ± 0.20 μmol/m^2 | 0.98 ± 0.02 μmol/m^2 | 1.51 ± 0.01 μmol/m^2 | 22%
CCCCCCCCCCCCCC[N+](C)(C)C.[Br-] [C14TAB, tetradecyltrimethylammonium bromide] | 0.12 ± 0.02 | 12 ± 2 µM | 3 ± 1 µM |  |  | 1.10 ± 0.01 μmol/m^2 | 1.43 ± 0.02 μmol/m^2 | 19%
